From PubChem BioAssay AID1794812
Records with an inconclusive call do not appear.

Biological target: Excitatory amino acid transporter 3 (Homo sapiens) (UniProt P43005)
Assay: SLC1A1 substrate-evoked membrane depolarization, dose response, membrane potential dye, HEK-293 overexpressing cells (AID 1794812)
Details: HEK-293 SLC1A1 OE, FLIPR membrane potential dye

Chain of Excitatory amino acid transporter 3 (Homo sapiens) (P43005 whole entry, looked up): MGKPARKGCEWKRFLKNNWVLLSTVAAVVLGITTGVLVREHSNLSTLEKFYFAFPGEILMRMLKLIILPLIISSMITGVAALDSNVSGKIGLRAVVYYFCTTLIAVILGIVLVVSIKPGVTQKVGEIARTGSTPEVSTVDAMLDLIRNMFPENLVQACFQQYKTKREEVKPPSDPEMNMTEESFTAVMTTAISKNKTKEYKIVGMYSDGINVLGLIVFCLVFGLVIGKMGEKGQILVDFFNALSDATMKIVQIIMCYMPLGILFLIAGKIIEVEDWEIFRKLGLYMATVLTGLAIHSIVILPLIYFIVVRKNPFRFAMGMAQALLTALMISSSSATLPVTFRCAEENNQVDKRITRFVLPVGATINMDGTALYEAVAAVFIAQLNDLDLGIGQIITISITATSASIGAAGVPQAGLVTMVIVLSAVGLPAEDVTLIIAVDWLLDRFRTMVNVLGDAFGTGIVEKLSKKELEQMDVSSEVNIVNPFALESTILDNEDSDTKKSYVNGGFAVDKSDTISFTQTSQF

EC50: 161 µM
Structure (SMILES): N[C@@H](CS)C(=O)O
